A word on the Km: it is the substrate concentration at which the rate is half of its maximum.

The target of this test is PRMT7 (TbPRMT7) (Trypanosoma brucei, UniProt Q582G4).
Chain of PRMT7 (TbPRMT7) (Q582G4 whole entry): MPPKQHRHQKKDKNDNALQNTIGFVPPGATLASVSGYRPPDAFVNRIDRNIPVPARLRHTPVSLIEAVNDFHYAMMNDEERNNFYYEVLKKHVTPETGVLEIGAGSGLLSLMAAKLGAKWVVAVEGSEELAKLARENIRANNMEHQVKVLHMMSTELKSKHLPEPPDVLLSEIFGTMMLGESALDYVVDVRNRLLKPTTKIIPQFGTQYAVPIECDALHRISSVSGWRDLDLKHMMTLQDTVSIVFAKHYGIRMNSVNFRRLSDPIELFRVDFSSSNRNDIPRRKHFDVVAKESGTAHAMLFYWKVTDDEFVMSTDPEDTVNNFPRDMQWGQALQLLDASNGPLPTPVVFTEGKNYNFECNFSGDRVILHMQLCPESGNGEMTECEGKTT

Consider `C[S+](CC[C@H](N)C(=O)O)C[C@H]1O[C@@H](n2nnc3c(N)ncnc32)[C@H](O)[C@@H]1O` (stereo partly shown) [8-aza-SAM], for which the Michaelis constant (Km) stood at 15.3 ± 0.7 µM.
